Measured values as given in patent US6867200B1, “(Hetero)aryl-bicyclic heteroaryl derivatives, their preparation and their use as protease inhibitors” (Axys Pharmaceuticals, Inc., priority 1998, dated 2005).

What was measured:
human Urokinase = target: T1, human Urokinase (Homo sapiens, UniProt P00749); assay: Urokinase (uPA) inhibition, chromogenic substrate hydrolysis, Ki app.; type: biochemical
T1 construct: purchased American Diagnostica, CT, USA
Experimental: (§1) The effectiveness of compounds of the present invention as inhibitors of Urokinase and Factor Xa is determined using synthetic substrates and purified Urokinase and purified human Factor Xa respectively.
(§2) The rates of hydrolysis by the chromagenic substrates were measured both in the absence and presence of compounds of the present invention. […] The results of this assay are expressed as the inhibitory constant, Ki app.
Urokinase inhibition determinations were made in 50 mM Tris (pH7.5), 150 mM NaCl, 0.05% Tween-20, 0.002% antifoam, and 1 mM EDTA. human Urokinase (from American Diagnostica, CT, USA). […] The enzyme assay routinely yielded linear progression curves under these conditions. Initial velocity measurements calculated from the progress curves by a kinetic analysis program (Batch Ki; Peter Kuzmic, BioKin, Ltd., Madison, Wis.) were used to determine Ki app.

human Factor Xa = target: T2, human Factor Xa (Homo sapiens, UniProt P00742); assay: Factor Xa inhibition, chromogenic substrate hydrolysis, Ki app.; type: biochemical; conditions: read-out: FXa Ki
T2 construct: purified human Factor Xa; purchased Haematologic Technologies, VT, USA
T2 sequence (P00742 235-488 limits assumed): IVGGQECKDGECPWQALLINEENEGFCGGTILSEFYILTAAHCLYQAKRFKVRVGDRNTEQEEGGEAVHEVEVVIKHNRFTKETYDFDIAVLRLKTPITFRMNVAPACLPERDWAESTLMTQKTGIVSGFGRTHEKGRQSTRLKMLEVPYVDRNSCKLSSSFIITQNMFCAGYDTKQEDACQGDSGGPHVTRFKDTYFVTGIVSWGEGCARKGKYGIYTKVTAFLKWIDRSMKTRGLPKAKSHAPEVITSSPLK
T2 sequence (P00742 41-179 partner limits assumed): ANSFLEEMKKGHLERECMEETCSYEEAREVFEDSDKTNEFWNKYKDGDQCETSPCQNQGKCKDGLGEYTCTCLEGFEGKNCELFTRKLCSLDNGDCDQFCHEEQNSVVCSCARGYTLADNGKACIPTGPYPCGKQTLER
Experimental: as §1, §2
Factor Xa determinations were made in 50 mM Tris buffer, pH 7.5, containing 1M NaCl, 5 mM CaCl2, 0.05% Tween-20, and 1.5 mM EDTA. […] The enzyme assay routinely yielded linear progression curves under these conditions. Initial velocity measurements calculated from the progress curves by a kinetic analysis program (Batch Ki; Peter Kuzmic, BioKin, Ltd., Madison, Wis.) were used to determine Ki app.

| SMILES | Ki (human Urokinase) [nM] | Ki (human Factor Xa) [nM] |
| --- | --- | --- |
| N=C(N)c1ccc2[nH]c(-c3cc(CCC(=O)O)cc(Br)c3O)c(Cc3ccccc3)c2c1 [Ex. 802, 3-[3-(3-Benzyl-5-carbamimidoyl-1H-indol-2-yl)-5-bromo-4-hydroxy-phenyl]-propionic acid] | 260 | 0.618 |
| N=C(N)c1ccc2nc(-c3ccc(OCC(=O)NCc4cccc5ccccc45)cc3O)[nH]c2c1 [compound 258, 2-[4-(6-Carbamimidoyl-1H-benzoimidazol-2-yl)-3-hydroxy-phenoxy]-N-naphthalen-1-ylmethyl-acetamide] |  | 460 |
| Cc1cc(-c2ccccc2)c(O)c(-c2cc3cc(C(=N)N)ccc3[nH]2)c1 [compound 820] | 65 | 298 |
| N=C(N)c1cc2cc(-c3cc(CC(=O)N4CCS(=O)(=O)CC4)cc(-c4ccccc4)c3O)[nH]c2cc1Cl [compound 860] | 4 | 5400 |
